We go through three molecules from publication PMC6383948, “Evaluation of a class of isatinoids identified from a high-throughput screen of human kinase inhibitors as anti-Sleeping Sickness agents” (PLoS Neglected Tropical Diseases, 2019).

pEC50: −log10 of the molar value. Converted amounts (≈) assume the structure as drawn. Read-outs that look alike come from different tables or passages of the source.

The term solubility denotes how much of the substance goes into solution per volume. The hepatocyte CLint is a measure of how fast metabolising enzymes remove a compound, apart from limits set by blood flow. What is called pEC50 is −log10 of the EC50, conventionally taken in molar units.

The nature of data set [1]: Aqueous pH 7.4 solubility. Type of data set: physicochemical. Conditions: pH 7.4 phosphate buffer, 25 °C, 20-24 h, read-out: Aq. Solubility. The protocol:
Compounds are dried down from 10 mM DMSO solutions using centrifugal evaporation technique. Phosphate buffer (0.1 M pH 7.4) added and StirStix inserted in the glass vials, shaking is then performed at a constant temperature of 25 °C for 20-24 h. This step is followed by double centrifugation with a tip wash in between, to ensure that no residues of the dried compound are interfering. The solutions are diluted before analysis and quantification using LC/MS/MS is performed.

Data set [2] in a line: Human liver microsomal CLint. In kind it is in vitro ADME. Conditions: for microsomal CLint: human, liver microsomes, read-out: HLM Clint. The protocol: In vitro intrinsic clearance determined from human liver microsomes using a standard approach. Following incubation and preparation, the samples are analyzed using LC/MS/MS.
The nature of data set [3]: Rat hepatocyte CLint. Type of data set: in vitro ADME. Conditions: rat hepatocytes. The protocol:
In vitro intrinsic clearance determined from rat hepatocytes using a standard approach. Following incubation and preparation, the samples are analyzed using LC/MS/MS.

Data set [4] deals with T. cruzi. Nature of the data set: β-D-Galactosidase transgenic T. cruzi assay (amastigote-infected L6 cells). In kind it is cell-based, T. cruzi Tulahuen C4 strain. Conditions: Trypanosoma cruzi, 96 h, read-out: T. cruzi pEC50 (converted). The protocol: The T. cruzi Tulahuen C4 strain, expressing the β-galactosidase gene (LacZ) and L6 rat skeletal muscle cells, used as host cells, were cultured in RPMI-1640 supplemented with 10% iFBS, 2 mM L-glutamine, 100 U/mL penicillin, and 100 μg/mL streptomycin at 37 °C and 5% CO2.
A Thermo Scientific Multidrop Combi dispenser (MTX Lab Systems, Vienna, VA) was used to dispense 90 μL of T. cruzi amastigote–infected L6 cell culture (4×10^3 infected L6 cells per well) into 96-well Corning assay plates (Corning Inc., Corning, NY) already containing 10 μL of the compounds to be screened and controls. The plates were incubated at 37 °C for 96 h. Then, 30 μL of 100 μM CPRG and 0.1% NP40 diluted in PBS were added to each well, and the plates were incubated for 4 h at 37 °C in the dark. Absorbance at 585 nm was measured in a Vmax kinetic microplate reader ([…]). Compound activities were normalized using the in-plate negative (benznidazole at 10 μg/mL) and positive (0.2% DMSO) growth controls.

The subject of data set [5] is T. b. brucei. Nature of the data set: T. b. brucei growth inhibition EC50 assay (resazurin, 72 h). Conditions: for EC50: 72 h, resazurin, error within ±0.20 (Table 2) or ±0.08 (Table 3) log units, read-out: T.b.b. pEC50 (converted). Type of data set: cell-based, Trypanosoma brucei brucei Lister 427. The protocol: Mid-log phase growth T. b. brucei was diluted to a working cell density of 2,750 cells/mL and 90 μL/well dispensed into 96-well flat-bottom transparent assay plates (Nunc). Ten μL/well from intermediate plates were added. The final top concentration of compounds was 40 μM in 0.4% DMSO per well.
Assay plates were incubated for 72 h at 37°C and 5% CO2. Four hours prior to the end of the incubation, 20 μL of a 440 μM resazurin solution in prewarmed HMI-9 was added to each well and incubated for another 4 h. Fluorescence was then measured in an Infinite F200 plate reader (Tecan) at 550 nm (excitation filter) and 590 nm (emission filter). A 4-parameter equation was employed to fit the dose-response curves and determine of EC50 using the SigmaPlot 13.0 software. Assays were performed in duplicate at least twice, to achieve a minimal n = 3 per dose response.
Bloodstream Trypanosoma brucei brucei Lister 427 was cultured in Hirumi’s modified Iscove’s medium (HMI-9), supplemented with 10% heat-inactivated FBS, at 37 °C and 5% CO2 in T-25 vented flask (Corning®).
For dose-response experiments, compound plates were prepared for each analogue by serial 3-fold dilutions in 100% DMSO. Five concentration points (mammalian cytotoxicity) or ten concentration points (parasite growth inhibition), were made in 96-well transparent Nunclon plates. Pentamidine is routinely included in compound plates as internal quality control, and plates are stored sealed at -20 °C for no more than four weeks.

For data set [6], the system named is MRC5-SV2 cell line. Nature of the data set: Cytotoxicity assay in MRC5 (resazurin, 48 h). Conditions: MRC5 toxicity. Type of data set: cell-based, human. The protocol:
For dose-response experiments, compound plates were prepared for each analogue by serial 3-fold dilutions in 100% DMSO. Five concentration points (mammalian cytotoxicity) or ten concentration points (parasite growth inhibition), were made in 96-well transparent Nunclon plates. Pentamidine is routinely included in compound plates as internal quality control, and plates are stored sealed at -20 °C for no more than four weeks. Intermediate plates were made as described, adding 95 μL of DMEM complete media to 5 μL of compound per well setting a 5% DMSO amount. Log-phase MRC5 cells were removed from a T-75 TC flask using TrypLE® Express (Thermo®) and dispersed by gentle pipetting. Cell density was adjusted to working concentration in prewarmed DMEM medium: 25,000 cells in 90 μL of culture were plated in 96-well transparent Nunclon plates and let to settle for 24 h at 37 °C and 5% CO2. After settling incubation, 10 μL of fresh made intermediate plate were added per well: final maximal concentration for compounds was 50 μM in 0.5% DMSO per well. […] Fluorescence was read in an Infinite F200 plate reader (Tecan®) at 550 nm (excitation filter) and 590 nm (emission filter). A 4-parameter equation was used to fit the dose-response curves and determination of EC50 by SigmaPlot ® 13.0 software. Assays were performed in duplicate at least twice for positive compounds, to achieve a minimal n=3 per dose response.
Background: Resazurin is reduced to fluorescent resorufin, in cell work by metabolically active cells.

The test system of data set [7] is L. donovani. Nature of the data set: EC50 in L. donovani (infected THP-1 macrophages, luciferase). Type of data set: cell-based, Leishmania donovani MHOM/ET/67/HU3. Conditions: Leishmania donovani, 72 h, read-out: L. donovani pEC50 (converted). The protocol:
Leishmania donovani MHOM/ET/67/HU3 cells with the luciferase gene integrated into the parasite genome[1] were grown at 28 °C in RPMI 1640-modified medium (Invitrogen) supplemented with 20% FBS with […] of hygromycin B.
The Human myelomonocytic cell line THP-1 was grown at 37 °C and 5% CO2 in RPMI-1640 supplemented with 10% iFBS, 2 mM […], 100 U/mL penicillin and […] streptomycin. 3 x 10^4 THP-1 cells per well in 96-well plates were differentiated to macrophages with 20 ng/mL of PMA treatment for 48 h followed by 24 h of culture in fresh medium.
Macrophage-differentiated THP-1 cells were infected at a macrophage/parasite ratio of 1/10 with stationary L. donovani promastigotes for 24 h at 35 °C and 5% CO2, and extracellular parasites were removed by washing with PBS. Infected cell cultures were then incubated with different compounds concentrations at 37 °C for 72 h. Luminescence was measured using the Promega kit luciferase assay system (Promega, Madison, WI). Assays were performed in duplicate at least twice, to achieve a minimal n=3 per dose response.

Data set [8] can be described thus: Human plasma protein binding (equilibrium dialysis). In kind it is in vitro ADME. Conditions: pH 7.4, read-out: PPB (converted). The protocol:
PPB is determined using equilibrium dialysis (RED device) to separate free from bound compound. The amount of compound in plasma (10 µM initial concentration) and in dialysis buffer (pH 7.4 phosphate buffer) is measured by LC-MS/MS after equilibration at 37 °C in a dialysis chamber. The fraction unbound (fu) is reported.

The mark [9] stands for this setting: aqueous buffer, thermodynamic from solid.

On to `CNS(=O)(=O)c1ccc(N/N=C2\C(=O)Nc3ccccc32)cc1` [NEU-2124, (Z)-N-Methyl-4-(2-(2-oxoindolin-3-ylidene)hydrazinyl)benzenesulfonamide], for which the solubility in data set [1] (setting [9]) was below 39 µM; in data set [1], above 10 µM. The microsomal CLint in data set [2] is 20.3 µL/min/mg. In data set [3], the intrinsic metabolic clearance (hepatocyte CLint) worked out at 36.4 µL/min/1e6 cells. The EC50 in data set [4] is above 10000 nM; in data set [5] (Trypanosoma brucei) it was 5010 nM; in data set [7] it was above 10000 nM. Besides, the “MRC5 pTC50” value in data set [6] is below 4.3. The fraction unbound at 10 µM in data set [8] is 0.02.

Consider `CNS(=O)(=O)c1ccc(N/N=C2\C(=O)Nc3cccc(C=C(C)C)c32)cc1` [NEU-4391, (Z)-N-Methyl-4-(2-(4-(2-methylprop-1-en-1-yl)-2-oxoindolin-3-ylidene)hydrazinyl)benzenesulfonamide], for which the solubility in data set [1] worked out at 4 µM (≈ 1.54 µg/mL). In addition, the “HLM Clint” value in data set [2] (human liver microsomes) was found to be 8.63 µL/min/mg. Also, the microsomal CLint in data set [2] is 8.6 µL/min/mg. This molecule also came in with a hepatocyte CLint in data set [3] of 103 µL/min/1e6 cells. Besides, the EC50 was 2240 nM in data set [4], 158 nM in data set [5] (Trypanosoma brucei) and above 5010 nM in data set [7]. Besides, the “activity against T. brucei” value in data set [5] is listed as “sub-micromolar activity”. In addition, the pEC50 in data set [5] (Trypanosoma brucei, T. brucei, read-out: EC50) was 7.08. For the same molecule, the “MRC5 pTC50” value in data set [6] is listed as below 4.3. Moreover, the fraction unbound at 10 µM in data set [8] is below 0.04.

Take `CN(C)S(=O)(=O)c1ccc(N/N=C2\C(=O)Nc3ccccc32)cc1` [NEU-2118, (Z)-N,N-Dimethyl-4-(2-(2-oxoindolin-3-ylidene)hydrazinyl)benzenesulfonamide]: in data set [1] (setting [9]), the solubility is below 1 µM. Further, the microsomal CLint in data set [2] came out at 38.2 µL/min/mg. Besides, the intrinsic clearance (hepatocyte CLint) in data set [3] worked out at 146 µL/min/1e6 cells. Also, the EC50 is above 10000 nM in data set [4], 1580 nM in data set [5] (Trypanosoma brucei) and above 10000 nM in data set [7]. Further, the “MRC5 pTC50” value in data set [6] is on record as below 4.3. In data set [8], the fraction unbound at 10 µM was 0.01.
